In ChEMBL document CHEMBL4616689, “PROTAC Compounds Targeting Androgen Receptor for Cancer Therapeutics: Prostate Cancer and Kennedy's Disease” (ACS Med Chem Lett, 2020):

What was measured:
Format in all cases: cell-based
[1] = molecular target: T1, von Hippel-Lindau disease tumor suppressor/Androgen receptor (Homo sapiens, UniProt P10275+P40337); assay: Protac activity at E3-ubiquitin ligase/AR in human LNCAP cells assessed as time taken for maximum degradation by ELISA
Target sequence in this assay (P10275 whole entry, looked up): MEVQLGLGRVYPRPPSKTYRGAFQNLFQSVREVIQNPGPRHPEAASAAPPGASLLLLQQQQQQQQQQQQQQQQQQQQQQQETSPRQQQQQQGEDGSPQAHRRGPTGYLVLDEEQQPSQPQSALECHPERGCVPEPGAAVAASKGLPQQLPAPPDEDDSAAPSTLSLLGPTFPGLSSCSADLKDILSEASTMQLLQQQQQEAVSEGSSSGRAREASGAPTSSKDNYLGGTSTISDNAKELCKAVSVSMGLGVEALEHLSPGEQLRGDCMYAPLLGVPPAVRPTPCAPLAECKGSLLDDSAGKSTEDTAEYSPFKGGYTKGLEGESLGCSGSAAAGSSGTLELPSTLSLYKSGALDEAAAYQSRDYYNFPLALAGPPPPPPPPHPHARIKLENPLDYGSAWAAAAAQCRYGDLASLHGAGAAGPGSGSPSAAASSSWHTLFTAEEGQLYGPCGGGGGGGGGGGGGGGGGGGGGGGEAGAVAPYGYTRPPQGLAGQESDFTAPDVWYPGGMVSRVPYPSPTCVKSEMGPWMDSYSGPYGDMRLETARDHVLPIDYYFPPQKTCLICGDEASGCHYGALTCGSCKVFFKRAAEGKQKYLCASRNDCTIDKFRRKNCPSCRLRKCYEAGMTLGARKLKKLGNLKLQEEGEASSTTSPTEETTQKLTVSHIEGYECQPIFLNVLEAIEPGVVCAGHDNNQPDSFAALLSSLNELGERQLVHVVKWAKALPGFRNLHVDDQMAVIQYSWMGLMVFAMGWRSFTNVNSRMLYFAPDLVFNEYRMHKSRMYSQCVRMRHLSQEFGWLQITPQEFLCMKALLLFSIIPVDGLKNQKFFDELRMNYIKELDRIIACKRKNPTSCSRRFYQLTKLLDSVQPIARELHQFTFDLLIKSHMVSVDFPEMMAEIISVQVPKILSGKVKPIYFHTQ
Target sequence in this assay (P40337 whole entry, looked up): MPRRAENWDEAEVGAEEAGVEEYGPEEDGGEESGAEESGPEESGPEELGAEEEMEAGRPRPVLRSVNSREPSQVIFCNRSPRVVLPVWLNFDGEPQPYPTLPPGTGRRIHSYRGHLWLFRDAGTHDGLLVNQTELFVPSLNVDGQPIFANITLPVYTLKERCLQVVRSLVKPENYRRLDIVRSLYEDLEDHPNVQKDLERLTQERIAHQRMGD

[2] = molecular target: T1, von Hippel-Lindau disease tumor suppressor/Androgen receptor; assay: Protac activity at E3 ubiquitin-protein ligase/AR in human LNCAP cells assessed as induction of AR degradation after 24 hrs by ELISA relative to control
Target sequence in this assay (P10275 whole entry, looked up): as the sequence (P10275 whole entry, looked up) above
Target sequence in this assay (P40337 whole entry, looked up): as the sequence (P40337 whole entry, looked up) above

[3] = molecular target: T1, von Hippel-Lindau disease tumor suppressor/Androgen receptor; assay: Protac activity at E3-ubiquitin ligase/AR in human LNCAP cells assessed as AR degradation up to 15 mins by ELISA relative to control; set-up: concentration or dose not given beside the values
Target sequence in this assay (P10275 whole entry, looked up): as the sequence (P10275 whole entry, looked up) above
Target sequence in this assay (P40337 whole entry, looked up): as the sequence (P40337 whole entry, looked up) above

[4] = molecular target: T1, von Hippel-Lindau disease tumor suppressor/Androgen receptor; assay: Protac activity at E3 ubiquitin-protein ligase/AR in human VCAP cells assessed as induction of AR degradation after 24 hrs by ELISA relative to control
Target sequence in this assay (P10275 whole entry, looked up): as the sequence (P10275 whole entry, looked up) above
Target sequence in this assay (P40337 whole entry, looked up): as the sequence (P40337 whole entry, looked up) above

[5] = molecular target: T1, von Hippel-Lindau disease tumor suppressor/Androgen receptor; assay: Protac activity at E3-ubiquitin ligase/AR in human VCaP cells assessed as time taken for maximal degradation by ELISA
Target sequence in this assay (P10275 whole entry, looked up): as the sequence (P10275 whole entry, looked up) above
Target sequence in this assay (P40337 whole entry, looked up): as the sequence (P40337 whole entry, looked up) above

[6] = molecular target: T1, von Hippel-Lindau disease tumor suppressor/Androgen receptor; assay: Protac activity at E3 ubiquitin-protein ligase/AR in human LNCAP cells assessed as induction of AR degradation after 24 hrs by ELISA
Target sequence in this assay (P10275 whole entry): as the sequence (P10275 whole entry, looked up) above
Target sequence in this assay (P40337 whole entry): as the sequence (P40337 whole entry, looked up) above

[7] = molecular target: T1, von Hippel-Lindau disease tumor suppressor/Androgen receptor; assay: Protac activity at E3 ubiquitin-protein ligase/AR in human VCAP cells assessed as induction of AR degradation after 24 hrs by ELISA
Target sequence in this assay (P10275 whole entry): as the sequence (P10275 whole entry, looked up) above
Target sequence in this assay (P40337 whole entry): as the sequence (P40337 whole entry, looked up) above

[8] = molecular target: T1, von Hippel-Lindau disease tumor suppressor/Androgen receptor; assay: Protac activity at E3-ubiquitin ligase/AR in human VCaP cells assessed as AR degradation up to 15 mins by ELISA relative to control; set-up: concentration or dose not given beside the values
Target sequence in this assay (P10275 whole entry, looked up): as the sequence (P10275 whole entry, looked up) above
Target sequence in this assay (P40337 whole entry, looked up): as the sequence (P40337 whole entry, looked up) above

Compound | TIME [1] | Emax [2] | Activity [3] | Emax [4] | TIME [5] | DC50 [6] | DC50 [7] | Activity [8]
Cc1ncsc1-c1ccc([C@H](C)NC(=O)[C@@H]2C[C@@H](O)CN2C(=O)[C@@H](NC(=O)COCCCOCCCCCOc2c(F)cc(N3C(=S)N(c4ccc(C#N)c(C(F)(F)F)c4)C(=O)C3(C)C)cc2F)C(C)(C)C)cc1 | 4 h | > 71% | 50% | < 70% | 4 h | ≤ 50 µM | ≤ 50 µM | 50%
Cc1ncsc1-c1ccc(CNC(=O)[C@@H]2C[C@@H](O)CN2C(=O)[C@@H](NC(=O)COCCCOCCCCCOc2ccc(N3C(=S)N(c4ccc(C#N)c(C(F)(F)F)c4)C(=O)C3(C)C)cc2)C(C)(C)C)cc1 | 4 h | > 71% | 50% | < 70% | 4 h | ≤ 50 µM | ≤ 50 µM | 50%
Cc1ncsc1-c1ccc([C@H](C)NC(=O)[C@@H]2C[C@@H](O)CN2C(=O)[C@@H](NC(=O)COCCCOCCCCCOc2ccc(N3C(=S)N(c4ccc(C#N)c(C(F)(F)F)c4)C(=O)C3(C)C)cc2F)C(C)(C)C)cc1 | 4 h | > 71% | 50% | < 70% | 4 h | ≤ 50 µM | ≤ 50 µM | 50%
Cc1ncsc1-c1ccc(CNC(=O)[C@@H]2C[C@@H](O)CN2C(=O)[C@@H](NC(=O)COCCCOCCCCOc2ccc(N3C(=S)N(c4cnc(C#N)c(C(F)(F)F)c4)C(=O)C3(C)C)cc2)C(C)(C)C)cc1 | 4 h | > 71% | 50% | > 71% | 4 h | ≤ 50 µM | ≤ 50 µM | 50%
Cc1ncsc1-c1ccc(CNC(=O)[C@@H]2C[C@@H](O)CN2C(=O)[C@@H](NC(=O)COCCCOCCCCOc2ccc(N3C(=S)N(c4ccc(C#N)c(C(F)(F)F)c4)C(=O)C3(C)C)cc2F)C(C)(C)C)cc1 | 4 h | > 71% | 50% | > 71% | 4 h | ≤ 50 µM | ≤ 50 µM | 50%
Cc1ncsc1-c1ccc(CNC(=O)[C@@H]2C[C@@H](O)CN2C(=O)[C@@H](NC(=O)COCCCOCCCCOc2ccc(N3C(=S)N(c4ccc(C#N)c(Cl)c4)C(=O)C3(C)C)cc2)C(C)(C)C)cc1 | 4 h | > 71% | 50% | > 71% | 4 h | ≤ 50 µM | ≤ 50 µM | 50%
Cc1ncsc1-c1ccc(CNC(=O)[C@@H]2C[C@@H](O)CN2C(=O)[C@@H](NC(=O)COCCCOCCCCCOc2ccc(N3C(=S)N(c4cnc(C#N)c(C(F)(F)F)c4)C(=O)C3(C)C)cc2)C(C)(C)C)cc1 | 4 h | > 71% | 50% | < 70% | 4 h | ≤ 50 µM | ≤ 50 µM | 50%
Cc1ncsc1-c1ccc(CNC(=O)[C@@H]2C[C@@H](O)CN2C(=O)[C@@H](NC(=O)COCCCCOc2ccc(-c3ccc(N4C(=S)N(c5ccc(C#N)c(C(F)(F)F)c5)C(=O)C4(C)C)cc3)cc2)C(C)(C)C)cc1 | 4 h | > 71% | 50% | > 71% | 4 h | ≤ 50 µM | ≤ 50 µM | 50%
